In patent US20240140991A1, “ANTIBIOTIC NATURAL PRODUCT ANALOGUES” (THE QUEEN'S UNIVERSITY OF BELFAST, priority 2021, published 2024):
Converted amounts (≈) assume the structure as drawn. Positions of bridges follow the written chain, without caps; N, C: chain ends. Non-standard residues stand in square brackets, D forms with d. Residues, ends and D or L forms follow the SMILES beside them. ξ: configuration not given here. *: point of attachment. Palmitoyl = CCCCCCCCCCCCCCCC(=O)*; Hexanoyl(4ξ-Me) = CCC(C)CCC(=O)*; Myristoyl = CCCCCCCCCCCCCC(=O)*; Lauroyl = CCCCCCCCCCCC(=O)*; Decanoyl = CCCCCCCCCC(=O)*; dOrn = NCCC[C@@H](N)C(=O)O; Octanoyl = CCCCCCCC(=O)*; Orn = NCCC[C@H](N)C(=O)O; Dap = NC[C@H](N)C(=O)O; Alloc = C=CCOC(=O)*

Assays:
[1] = system: E. Coli NCTC 12241; format: cell-based
Procedure: (§1) Minimum inhibitory concentration (MIC) was determined by broth microdilution according to CLSI guidelines. Blood agar plates were inoculated with glycerol stocks of Escherichia coli ATCC 25922, E. coli ATCC 25922 MCR-1, E. coli MCR-1 (clinical isolate from Utrecht Medical Center, NL), E. coli EQAS MCR-2 (clinical isolate from Wageningen University and Research, NL), Kiebsielia pneumoniae ATCC 11228, K. pneumoniae ATCC 13883, K. pneumonia 2048 (clinical isolate from Vrije Universiteit Amsterdam Medical Center, NL), K. pneumonia JS-123 (clinical isolate from Utrecht Medical Center, NL), Acinetobacter baumannii ATCC 17961, A. baumannil ATCC 17978, A. baumannii 2018-006 (clinical isolate from Rijksinstituut voor Volksgezondheid en Milieu, NL), A. baumannii MDR (clinical isolate from Vrije Universiteit Amsterdam Medical Center, NL), Pseudomonas aeruginosa ATCC 27853, P. aeruginosa PAO1, P. aeruginosa NRZ-03961 (Reference strain from Das Nationale Referenzzentrum für gramnegative Krankenhauserreger, DE), P. aeruginosa M-120 (clinical isolate from Leiden University Medical Center, NL) and Staphylococcus aureus USA300 (clinical isolate from Texas Children's Hospitalm, USA). E. coli 25922 MCR1 was grown on LB agar supplemented with kanamycin. The inoculated agar plates were then incubated for 16 hours at 37° C. Individually grown colonies were subsequently used to inoculate 3 mL aliquots of TSB that were then incubated at 37° C. with shaking at 220 rpm. In parallel, the compounds to be assessed were serially diluted with Mueller-Hinton broth (MHB) in polypropylene 96-well plates (50 μL in each well). Once the OD600 of the bacterial suspensions reached 0.5, the bacteria were diluted with MHB (final concentration 2×10^5 CFU mL^−1) and added to the microplates containing the test compounds (50 μL to each well, final volume: 100 μL). The well-plates were sealed with an adhesive membrane and after 16 hours of incubation at 37° C. with shaking at 220 rpm the wells were visually inspected for bacterial growth. MIC values were defined as the lowest concentration of the compound that prevented visible growth of bacteria.
were tested for inhibition of E. Coli NCTC 12241.

[2] = system: A. baumannii ATCC 17978; format: cell-based, Acinetobacter baumannii; details: ATCC 17978
Procedure: as §1

[3] = system: Escherichia coli ATCC 25922; format: cell-based; details: ATCC 25922
Procedure, shortened: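 Broth microdilution in MHB per CLSI; inoculum 2×10^5 CFU mL^−1 from log-phase TSB cultures at OD600 0.5. Plates incubated 16 hours at 37° C with shaking at 220 rpm. MIC is the lowest concentration preventing visible growth.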

[4] = system: K. pneumoniae ATCC 11228; format: cell-based, Klebsiella pneumoniae; details: ATCC 11228
Procedure: as §1

[5] = system: P. aeruginosa PAO1; format: cell-based, Pseudomonas aeruginosa; details: PAO1
Procedure: as §1

[6] = system: E. coli; format: cell-based
Procedure: as §1
MIC values were determined for the lipid analogues of brevicidine.
MIC values were determined for the position 9 analogues of linear brevicidine.

CCCCCCCC(=O)N[C@H](CC(N)=O)C(=O)N[C@H](Cc1ccc(O)cc1)C(=O)N[C@H](Cc1c[nH]c2ccccc12)C(=O)N[C@H](CCCN)C(=O)N[C@@H](CCCN)C(=O)NCC(=O)N[C@H](CCCN)C(=O)N[C@@H](Cc1c[nH]c2ccccc12)C(=O)N[C@@H](C)C(=O)N[C@H](C(=O)NCC(=O)O)[C@@H](C)CC [Oct- Ala OH] (Octanoyl-[dN][dY][dW][dOrn][Orn]G[dOrn]WAIG-OH)
E. coli MIC [1]: 25 µg/mL

C=CCOC(=O)NC[C@H](NC(=O)[C@H](Cc1c[nH]c2ccccc12)NC(=O)[C@@H](CCCN)NC(=O)CNC(=O)[C@H](CCCN)NC(=O)[C@@H](CCCN)NC(=O)[C@@H](Cc1c[nH]c2ccccc12)NC(=O)[C@@H](Cc1ccc(O)cc1)NC(=O)[C@@H](CC(N)=O)NC(=O)CCCCCCC)C(=O)N[C@H](C(=O)NCC(=O)O)[C@@H](C)CC [Oct- Dap(Alloc) OH] (Octanoyl-[dN][dY][dW][dOrn][Orn]G[dOrn]W[Dap](Alloc)IG-OH)
E. coli MIC [1]: 12.5 µg/mL

C=CCOC(=O)NC[C@H](NC(=O)[C@H](Cc1c[nH]c2ccccc12)NC(=O)[C@@H](CCCN)NC(=O)CNC(=O)[C@H](CCCN)NC(=O)[C@@H](CCCN)NC(=O)[C@@H](Cc1c[nH]c2ccccc12)NC(=O)[C@@H](Cc1ccc(O)cc1)NC(=O)[C@@H](CC(N)=O)NC(=O)CCC(C)CC)C(=O)N[C@H](C(=O)NCC(N)=O)[C@@H](C)CC (stereo partly shown) [MeHex- Dap(Alloc) NH2] ({Hexanoyl(4ξ-Me)}-[dN][dY][dW][dOrn][Orn]G[dOrn]W[Dap](Alloc)IG-NH2)
E. coli MIC [1]: 0.19 µg/mL

C=CCOC(=O)NC[C@H](NC(=O)[C@H](Cc1c[nH]c2ccccc12)NC(=O)[C@@H](CCCN)NC(=O)CNC(=O)[C@H](CCCN)NC(=O)[C@@H](CCCN)NC(=O)[C@@H](Cc1c[nH]c2ccccc12)NC(=O)[C@@H](Cc1ccc(O)cc1)NC(=O)[C@@H](CC(N)=O)NC(=O)CCCCCCC)C(=O)N[C@H](C(=O)NCC(N)=O)[C@@H](C)CC [Oct Dap(Alloc) NH2] (Octanoyl-[dN][dY][dW][dOrn][Orn]G[dOrn]W[Dap](Alloc)IG-NH2)
E. coli MIC [1]: 0.4 µg/mL

C=CCOC(=O)NC[C@H](NC(=O)[C@H](Cc1c[nH]c2ccccc12)NC(=O)[C@@H](CCCN)NC(=O)CNC(=O)[C@H](CCCN)NC(=O)[C@@H](CCCN)NC(=O)[C@@H](Cc1c[nH]c2ccccc12)NC(=O)[C@@H](Cc1ccc(O)cc1)NC(=O)[C@@H](CC(N)=O)NC(=O)CCC(C)CC)C(=O)N[C@H](C(=O)NCC(=O)O)[C@@H](C)CC (stereo partly shown) [MeHex- Dap(Alloc) OH] ({Hexanoyl(4ξ-Me)}-[dN][dY][dW][dOrn][Orn]G[dOrn]W[Dap](Alloc)IG-OH)
E. coli MIC [1]: 1.6 µg/mL

CCC(C)CCC(=O)N[C@H](CC(N)=O)C(=O)N[C@H](Cc1ccc(O)cc1)C(=O)N[C@H](Cc1c[nH]c2ccccc12)C(=O)N[C@H](CCCN)C(=O)N[C@@H](CCCN)C(=O)NCC(=O)N[C@H](CCCN)C(=O)N[C@@H](Cc1c[nH]c2ccccc12)C(=O)N[C@@H](C)C(=O)N[C@H](C(=O)NCC(=O)O)[C@@H](C)CC (stereo partly shown) [MeHex- Ala OH] ({Hexanoyl(4ξ-Me)}-[dN][dY][dW][dOrn][Orn]G[dOrn]WAIG-OH)
E. coli MIC [1]: 50 µg/mL

CCCCCCCCCCCCCC(=O)N[C@H](CO)C(=O)N[C@H](Cc1ccc(O)cc1)C(=O)N[C@H](Cc1c[nH]c2ccccc12)C(=O)N[C@H](CCCN)C(=O)N[C@@H](CCCN)C(=O)NCC(=O)N[C@H](CCCN)C(=O)N[C@@H](Cc1c[nH]c2ccccc12)C(=O)N[C@@H]1C(=O)N[C@@H]([C@@H](C)CC)C(=O)N[C@@H](CC(N)=O)C(=O)NCC(=O)NCC(=O)O[C@@H]1C [Compound C14] (Myristoyl-[dS][dY][dW][dOrn][Orn]G[dOrn]WTINGG; ester 9-C)
Minimum inhibitory concentration (MIC) [2]: 4 µg/mL (≈ 2.39 µM)
Minimum inhibitory concentration (MIC) [3]: 8 µg/mL (≈ 4.78 µM)
Minimum inhibitory concentration (MIC) [4]: 8 µg/mL (≈ 4.78 µM)
Minimum inhibitory concentration (MIC) [5]: 8 µg/mL (≈ 4.78 µM)

CCCCCCCCCCCCCCCC(=O)N[C@H](CO)C(=O)N[C@H](Cc1ccc(O)cc1)C(=O)N[C@H](Cc1c[nH]c2ccccc12)C(=O)N[C@H](CCCN)C(=O)N[C@@H](CCCN)C(=O)NCC(=O)N[C@H](CCCN)C(=O)N[C@@H](Cc1c[nH]c2ccccc12)C(=O)N[C@@H]1C(=O)N[C@@H]([C@@H](C)CC)C(=O)N[C@@H](CC(N)=O)C(=O)NCC(=O)NCC(=O)O[C@@H]1C [Compound C16] (Palmitoyl-[dS][dY][dW][dOrn][Orn]G[dOrn]WTINGG; ester 9-C)
Minimum inhibitory concentration (MIC) [2]: 4 to 8 µg/mL
Minimum inhibitory concentration (MIC) [3]: 64 µg/mL (≈ 37.6 µM)
Minimum inhibitory concentration (MIC) [4]: 32 µg/mL (≈ 18.8 µM)
Minimum inhibitory concentration (MIC) [5]: 64 µg/mL (≈ 37.6 µM)

CCC(C)CCC(=O)N[C@H](CC(N)=O)C(=O)N[C@H](Cc1ccc(O)cc1)C(=O)N[C@H](Cc1c[nH]c2ccccc12)C(=O)N[C@H](CCCN)C(=O)N[C@@H](CCCN)C(=O)NCC(=O)N[C@H](CCCN)C(=O)N[C@@H](Cc1c[nH]c2ccccc12)C(=O)N[C@@H](CN)C(=O)N[C@H](C(=O)NCC(N)=O)[C@@H](C)CC (stereo partly shown) [Und(9-Dap)-NH2] ({Hexanoyl(4ξ-Me)}-[dN][dY][dW][dOrn][Orn]G[dOrn]W[Dap]IG-NH2)
E. coli MIC [6]: 3.1 µg/mL
E. coli MIC [1]: 3.1 µg/mL

CCCCCCCCCC(=O)N[C@H](CO)C(=O)N[C@H](Cc1ccc(O)cc1)C(=O)N[C@H](Cc1c[nH]c2ccccc12)C(=O)N[C@H](CCCN)C(=O)N[C@@H](CCCN)C(=O)NCC(=O)N[C@H](CCCN)C(=O)N[C@@H](Cc1c[nH]c2ccccc12)C(=O)N[C@@H]1C(=O)N[C@@H]([C@@H](C)CC)C(=O)N[C@@H](CC(N)=O)C(=O)NCC(=O)NCC(=O)O[C@@H]1C [Compound C10] (Decanoyl-[dS][dY][dW][dOrn][Orn]G[dOrn]WTINGG; ester 9-C)
Minimum inhibitory concentration (MIC) [2]: 1 µg/mL (≈ 0.618 µM)
Minimum inhibitory concentration (MIC) [3]: 1 to 2 µg/mL
Minimum inhibitory concentration (MIC) [4]: 1 µg/mL (≈ 0.618 µM)
Minimum inhibitory concentration (MIC) [5]: 1 to 2 µg/mL

CCCCCCCCCCCC(=O)N[C@H](CO)C(=O)N[C@H](Cc1ccc(O)cc1)C(=O)N[C@H](Cc1c[nH]c2ccccc12)C(=O)N[C@H](CCCN)C(=O)N[C@@H](CCCN)C(=O)NCC(=O)N[C@H](CCCN)C(=O)N[C@@H](Cc1c[nH]c2ccccc12)C(=O)N[C@@H]1C(=O)N[C@@H]([C@@H](C)CC)C(=O)N[C@@H](CC(N)=O)C(=O)NCC(=O)NCC(=O)O[C@@H]1C [Compound C12] (Lauroyl-[dS][dY][dW][dOrn][Orn]G[dOrn]WTINGG; ester 9-C)
Minimum inhibitory concentration (MIC) [2]: 2 µg/mL (≈ 1.21 µM)
Minimum inhibitory concentration (MIC) [3]: 4 µg/mL (≈ 2.43 µM)
Minimum inhibitory concentration (MIC) [4]: 2 to 4 µg/mL
Minimum inhibitory concentration (MIC) [5]: 4 µg/mL (≈ 2.43 µM)

CCC(C)CCC(=O)N[C@H](CC(N)=O)C(=O)N[C@H](Cc1ccc(O)cc1)C(=O)N[C@H](Cc1c[nH]c2ccccc12)C(=O)N[C@H](CCCN)C(=O)N[C@@H](CCCN)C(=O)NCC(=O)N[C@H](CCCN)C(=O)N[C@@H](Cc1c[nH]c2ccccc12)C(=O)N[C@H](C(=O)N[C@H](C(=O)NCC(N)=O)[C@@H](C)CC)[C@@H](C)O (stereo partly shown) [Und(9-Thr)-NH2] ({Hexanoyl(4ξ-Me)}-[dN][dY][dW][dOrn][Orn]G[dOrn]WTIG-NH2)
E. coli MIC [6]: 1.56 µg/mL
E. coli MIC [1]: 1.56 µg/mL

CCC(C)CCC(=O)N[C@H](CC(N)=O)C(=O)N[C@H](Cc1ccc(O)cc1)C(=O)N[C@H](Cc1c[nH]c2ccccc12)C(=O)N[C@H](CCCN)C(=O)N[C@@H](CCCN)C(=O)NCC(=O)N[C@H](CCCN)C(=O)N[C@@H](Cc1c[nH]c2ccccc12)C(=O)N[C@@H](CO)C(=O)N[C@H](C(=O)NCC(N)=O)[C@@H](C)CC (stereo partly shown) [Und(9-Ser)-NH2] ({Hexanoyl(4ξ-Me)}-[dN][dY][dW][dOrn][Orn]G[dOrn]WSIG-NH2)
E. coli MIC [6]: 0.78 µg/mL
E. coli MIC [1]: 0.78 µg/mL
